Source: patent publication US10966426B2, “Herbicidal compositions comprising phenylpyrimidines” (BASF SE, priority 2016, dated 2021)
Values joined by “and” are separate entries in the source; they are usually repeats but may differ in a detail not shown here. Identical values can stand only once.

Experiments:
Type in all cases: in vivo
[1] = system: Galium aparine; assay: greenhouse pre-emergence treatment, GALAP
Procedure, shortened: (§1)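 Damage rated on 0 to 100 scale (0 = normal growth, 100 = no emergence or total above-ground kill) after 2-4 weeks at species-dependent 10-25° C or 20-35° C. Seeds sown per species in loamy sand, ~3.0% humus, treated right after sowing with aqueous spray of single actives or 10% emulsion-concentrate mixtures, then hooded; additive expectation by Colby.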

[2] = system: Galium aparine; assay: greenhouse post-emergence treatment, GALAP
Procedure, shortened: (§2)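 Foliar application to greenhouse-grown plants 3–15 cm tall in humus-containing loamy sand; response assessed on a 0–100 scale after 2–4 weeks, with Colby's E=X+Y−(X·Y/100) as the additive expectation.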

[3] = system: Papaver rhoeas; assay: greenhouse post-emergence treatment, PAPRH
Procedure, shortened: as §2

[4] = system: Polygonum convolvulus; assay: greenhouse pre-emergence treatment, POLCO
Procedure, shortened: as §1

[5] = system: Brachiaria decumbens; assay: greenhouse pre-emergence treatment, BRADC
Procedure, shortened: as §1

[6] = 20 DAT, GALAP, Ex. 26 solo 125 gai/ha
[7] = 20 DAT, GALAP, Ex. 26 solo 250 gai/ha
[8] = GALAP, Ex. 26 solo 125 gai/ha, 20 DAT
[9] = GALAP, Ex. 26 solo 250 gai/ha, 20 DAT
[10] = 20 DAT, Ex. 26 solo 62.5 gai/ha

## COC(=O)c1nc(C2CC2)ncc1-c1ccc(F)cc1Cl [Ex. 26]
[1]; [6]
  % activity: 0%
[1]; [7]
  % activity: 0%
[1]; Ex. 26 solo, 31.25 gai/ha, 20 DAT, GALAP
  % activity: 0%
[1]; Ex. 26 solo, 62.5 gai/ha, 20 DAT, GALAP
  % activity: 0%
[1]; Ex. 26 solo, 125 gai/ha, 20 DAT, GALAP
  % activity: 0%
[1]; GALAP, 20 DAT, solo Ex. 26 125 gai/ha
  % activity: 0%
[1]; GALAP, Ex. 26 solo 62.5 gai/ha, 20 DAT
  % activity: 0%
[1]; [8]
  % activity: 0%
[1]; [9]
  % activity: 0%
[2]; 20 DAT, Ex. 26 solo 125 gai/ha
  % activity: 0%
[2]; 20 DAT, GALAP, Ex. 26 solo 62.5 gai/ha
  % activity: 0%
[2]; [6]
  % activity: 0%
[2]; [7]
  % activity: 0%
[2]; Ex. 26 solo 62.5 gai/ha, 20 DAT, GALAP (pyridate table)
  % activity: 0%
[2]; Ex. 26 solo 62.5 gai/ha, 20 DAT, GALAP (pyroxsulam table)
  % activity: 0%
[2]; Ex. 26 solo 125 gai/ha, 20 DAT, GALAP (pyridate table)
  % activity: 0%
[2]; Ex. 26 solo 125 gai/ha, 20 DAT, GALAP (pyroxsulam table)
  % activity: 0%
[2]; Ex. 26 solo 125 gai/ha, 21 DAT, GALAP
  % activity: 0%
[2]; Ex. 26 solo 250 gai/ha, 20 DAT, GALAP (pyridate table)
  % activity: 0%
[2]; Ex. 26 solo 250 gai/ha, 20 DAT, GALAP (pyroxsulam table)
  % activity: 30%
[2]; Ex. 26 solo 250 gai/ha, 21 DAT, GALAP
  % activity: 0%
[2]; GALAP, 21 DAT, solo Ex. 26 250 gai/ha
  % activity: 25%
[2]; [8]
  % activity: 0%
[2]; [9]
  % activity: 0%
[3]; [10]
  % activity: 0%
[3]; 20 DAT, Ex. 26 solo 125 gai/ha
  % activity: 0%
[3]; 20 DAT, Ex. 26 solo 250 gai/ha
  % activity: 0%
[3]; 20 DAT, PAPRH, Ex. 26 solo 125 gai/ha
  % activity: 0%
[3]; 20 DAT, PAPRH, Ex. 26 solo 250 gai/ha
  % activity: 20%
[3]; 21 DAT, Ex. 26 solo 125 gai/ha
  % activity: 0%
[3]; 21 DAT, Ex. 26 solo 250 gai/ha
  % activity: 0%
[3]; Ex. 26 solo 62.5 gai/ha, 20 DAT, PAPRH (pyridate table)
  % activity: 0%
[3]; Ex. 26 solo 62.5 gai/ha, 20 DAT, PAPRH (pyroxsulam table)
  % activity: 0%
[3]; Ex. 26 solo 62.5 gai/ha, 21 DAT, PAPRH
  % activity: 0%
[3]; Ex. 26 solo 125 gai/ha, 20 DAT, PAPRH (pyridate table)
  % activity: 0%
[3]; Ex. 26 solo 125 gai/ha, 20 DAT, PAPRH (pyroxsulam table)
  % activity: 0%
[3]; Ex. 26 solo 250 gai/ha, 20 DAT, PAPRH (pyridate table)
  % activity: 45%
[3]; Ex. 26 solo 250 gai/ha, 20 DAT, PAPRH (pyroxsulam table)
  % activity: 0%
[3]; Ex. 26 solo 250 gai/ha, 21 DAT, PAPRH
  % activity: 0%
[3]; Ex. 26 solo, 125 gai/ha, 21 DAT, PAPRH
  % activity: 0%
[3]; Ex. 26 solo, 250 gai/ha, 21 DAT, PAPRH
  % activity: 15%
[3]; PAPRH, Ex. 26 solo 62.5 gai/ha, 20 DAT
  % activity: 0%
[3]; PAPRH, Ex. 26 solo 125 gai/ha, 20 DAT
  % activity: 0%
[4]; [10]
  % activity: 0%
[4]; 20 DAT, Ex. 26 solo 125 gai/ha
  % activity: 0%
[4]; 20 DAT, POLCO, Ex. 26 solo 31.25 gai/ha
  % activity: 0%
[4]; 20 DAT, POLCO, Ex. 26 solo 62.5 gai/ha
  % activity: 0%
[4]; 20 DAT, POLCO, Ex. 26 solo 125 gai/ha
  % activity: 0%
[4]; 20 DAT, POLCO, Ex. 26 solo 250 gai/ha
  % activity: 30%
[4]; Ex. 26 solo 62.5 gai/ha, 20 DAT, POLCO
  % activity: 0%
[4]; Ex. 26 solo 125 gai/ha, 20 DAT, POLCO
  % activity: 0%
[4]; Ex. 26 solo, 62.5 gai/ha, 20 DAT, POLCO
  % activity: 0%
[4]; Ex. 26 solo, 125 gai/ha, 20 DAT, POLCO
  % activity: 0%
[4]; POLCO, 20 DAT, solo Ex. 26 62.5 gai/ha
  % activity: 0%
[4]; POLCO, 20 DAT, solo Ex. 26 125 gai/ha
  % activity: 0%
[4]; POLCO, Ex. 26 solo 125 gai/ha, 20 DAT
  % activity: 0%
[4]; POLCO, Ex. 26 solo 250 gai/ha, 20 DAT
  % activity: 30%
[5]; 20 DAT, BRADC, Ex. 26 solo 125 gai/ha
  % activity: 50%
[5]; 20 DAT, Ex. 26 solo 31.25 gai/ha
  % activity: 0%
[5]; [10]
  % activity: 0%
[5]; 20 DAT, Ex. 26 solo 125 gai/ha
  % activity: 20%
[5]; 21 DAT, BRADC, Ex. 26 solo 125 gai/ha
  % activity: 10%
[5]; 21 DAT, BRADC, Ex. 26 solo 250 gai/ha
  % activity: 30%
[5]; BRADC, Ex. 26 solo 31.25 gai/ha, 20 DAT
  % activity: 0%
[5]; BRADC, Ex. 26 solo 62.5 gai/ha, 20 DAT
  % activity: 0%
[5]; BRADC, Ex. 26 solo 125 gai/ha, 20 DAT
  % activity: 20% and 30%
[5]; BRADC, Ex. 26 solo 250 gai/ha, 20 DAT
  % activity: 65%
[5]; Ex. 26 solo 62.5 gai/ha, 20 DAT, BRADC
  % activity: 20%
[5]; Ex. 26 solo 125 gai/ha, 20 DAT, BRADC
  % activity: 0%
[5]; Ex. 26 solo, 31.25 gai/ha, 20 DAT, BRADC
  % activity: 0%
[5]; Ex. 26 solo, 62.5 gai/ha, 20 DAT, BRADC
  % activity: 0%
[5]; Ex. 26 solo, 125 gai/ha, 20 DAT, BRADC
  % activity: 0%
